Here are results for two molecules from BindingDB's records for doi:10.1021/acs.jmedchem.1c01473 (Chapman University School of Pharmacy, 2022).

This test deals with Small conductance calcium-activated potassium channel protein 2 (Rattus norvegicus, UniProt P70604). The experiment in a line: Potentiation of rat KCa2.2a expressed in HEK293 cells assessed as increase in calcium response at -90 mV holding potential measured at 1 to 2 days by patch clamp electrophysiology. On the technique in general: Patch clamp records ionic current or voltage across a cell membrane.
Sequence of Small conductance calcium-activated potassium channel protein 2 (P70604 whole entry): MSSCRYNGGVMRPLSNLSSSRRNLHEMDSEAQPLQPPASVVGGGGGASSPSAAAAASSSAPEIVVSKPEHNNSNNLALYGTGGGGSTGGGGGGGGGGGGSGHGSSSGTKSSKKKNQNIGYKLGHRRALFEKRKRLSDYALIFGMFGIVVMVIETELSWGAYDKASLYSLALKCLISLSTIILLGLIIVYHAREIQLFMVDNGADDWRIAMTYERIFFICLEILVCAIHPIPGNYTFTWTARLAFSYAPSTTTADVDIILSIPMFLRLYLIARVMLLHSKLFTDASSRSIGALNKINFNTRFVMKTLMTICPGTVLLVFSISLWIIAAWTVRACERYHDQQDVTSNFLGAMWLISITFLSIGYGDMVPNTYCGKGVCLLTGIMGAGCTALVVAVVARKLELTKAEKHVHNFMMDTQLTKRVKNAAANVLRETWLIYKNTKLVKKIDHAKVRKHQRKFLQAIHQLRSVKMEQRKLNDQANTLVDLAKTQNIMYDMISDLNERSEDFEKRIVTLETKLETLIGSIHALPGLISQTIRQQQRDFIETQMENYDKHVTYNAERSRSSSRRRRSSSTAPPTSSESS

Turning to `Cc1cc(Nc2ccc(F)c(Cl)c2)nc(-n2nc(C)cc2C)n1`, the EC50 (as a rule, the concentration giving half of the maximal effect) stood at 110 nM.

With `Cc1cc(Nc2cc(Cl)ccc2F)nc(-n2nc(C)cc2C)n1`, the “EC50” value amounted to 91 nM.
